Assay results from publication PMC7075651 (Journal of Medicinal Chemistry, 2018).
Like-named read-outs stand apart in the source and are kept apart here. Where a SMILES comes first, the peptide text is derived from it. [ ]: non-standard residue; d: D form. The star is where a group is joined. Palmitoyl = CCCCCCCCCCCCCCCC(=O)*; βAla = NCCC(=O)O

Legend:
IAV polymerase = assay: cells; format: cell-based, influenza A virus; conditions: read-out: IC50, influenza replicon activity
[1] = biological target: neuraminidase from influenza A/Puerto Rico/8/1934 (H1N1) (Influenza A virus, UniProt P03468); format: biochemical
Chain of neuraminidase from influenza A/Puerto Rico/8/1934 (H1N1) (P03468 whole entry, looked up): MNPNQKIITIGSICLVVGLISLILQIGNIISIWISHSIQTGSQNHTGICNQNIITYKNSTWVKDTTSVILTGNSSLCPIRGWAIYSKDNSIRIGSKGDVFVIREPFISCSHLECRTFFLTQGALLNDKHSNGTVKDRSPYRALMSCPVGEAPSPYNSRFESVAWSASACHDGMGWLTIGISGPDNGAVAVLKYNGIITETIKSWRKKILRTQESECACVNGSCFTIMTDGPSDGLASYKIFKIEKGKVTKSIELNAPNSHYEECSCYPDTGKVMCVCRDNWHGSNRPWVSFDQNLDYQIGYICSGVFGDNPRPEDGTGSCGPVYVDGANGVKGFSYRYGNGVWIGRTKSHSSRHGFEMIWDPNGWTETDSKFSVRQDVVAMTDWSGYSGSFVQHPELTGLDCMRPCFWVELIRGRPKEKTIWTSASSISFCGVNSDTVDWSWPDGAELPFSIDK

[2] = biological target: neuraminidase from influenza A/Hong Kong/8/68 (H3N2) (Influenza A virus, UniProt Q91MA2); format: biochemical
Chain of neuraminidase from influenza A/Hong Kong/8/68 (H3N2) (Q91MA2 whole entry, looked up): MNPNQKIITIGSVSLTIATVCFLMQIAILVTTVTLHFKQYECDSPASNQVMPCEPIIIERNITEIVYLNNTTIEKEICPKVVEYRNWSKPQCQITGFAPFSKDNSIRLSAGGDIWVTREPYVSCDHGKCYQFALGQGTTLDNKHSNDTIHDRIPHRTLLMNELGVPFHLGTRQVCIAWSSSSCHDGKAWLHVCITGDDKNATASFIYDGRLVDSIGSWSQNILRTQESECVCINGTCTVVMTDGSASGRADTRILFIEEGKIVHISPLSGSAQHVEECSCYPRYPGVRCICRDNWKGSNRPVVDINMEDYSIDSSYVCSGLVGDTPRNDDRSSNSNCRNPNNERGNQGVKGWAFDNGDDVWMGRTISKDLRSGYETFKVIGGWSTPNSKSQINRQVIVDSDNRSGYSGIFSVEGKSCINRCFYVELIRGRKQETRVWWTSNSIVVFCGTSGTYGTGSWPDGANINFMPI

IAV = format: cell-based, influenza A virus
[3] = biological target: HA1 subunit sialic acid-binding site (Influenza A virus, UniProt P03452); design: species or system influenza A/Puerto Rico/8/34 virus
Chain of HA1 subunit sialic acid-binding site (P03452 18-343 limits assumed): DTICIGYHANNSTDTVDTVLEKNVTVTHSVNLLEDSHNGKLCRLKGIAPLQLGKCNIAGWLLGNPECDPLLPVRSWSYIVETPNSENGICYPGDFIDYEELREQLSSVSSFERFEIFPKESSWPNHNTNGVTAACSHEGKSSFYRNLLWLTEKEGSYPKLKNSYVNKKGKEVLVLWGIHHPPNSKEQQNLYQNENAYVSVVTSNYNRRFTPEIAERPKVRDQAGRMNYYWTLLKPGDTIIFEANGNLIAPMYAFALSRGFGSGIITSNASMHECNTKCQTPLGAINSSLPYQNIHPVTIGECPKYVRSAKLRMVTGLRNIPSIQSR
Chain of HA1 subunit sialic acid-binding site (P03452 345-565 limits assumed): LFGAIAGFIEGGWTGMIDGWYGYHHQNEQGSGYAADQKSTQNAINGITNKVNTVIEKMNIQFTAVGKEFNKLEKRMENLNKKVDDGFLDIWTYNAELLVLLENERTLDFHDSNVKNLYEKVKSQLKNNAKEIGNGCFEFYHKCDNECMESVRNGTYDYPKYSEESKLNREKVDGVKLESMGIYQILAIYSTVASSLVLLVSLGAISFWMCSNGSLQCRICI

HA2 subunit = HA2 subunit (Influenza A virus, UniProt P03452); design: species or system H1/PR8 virus; conditions: pH 4.6
Chain of HA2 subunit (P03452 18-343 limits assumed): as the sequence (P03452 18-343 limits assumed) above
Chain of HA2 subunit (P03452 345-565 limits assumed): as the sequence (P03452 345-565 limits assumed) above

N66 = N66 (Influenza A virus, UniProt P03437); format: binding, IAV H3 (X31); conditions: pH 8.8
Chain of N66 (P03437 385-450 limits assumed): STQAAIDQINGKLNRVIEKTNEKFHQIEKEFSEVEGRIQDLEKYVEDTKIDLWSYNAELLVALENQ

MERS-CoV pseudovirus = conditions: 12 h
TZM-b1 cell = conditions: human, TZM-b1 cells
in vivo = conditions: male, Sprague-Dawley, rat, iv, 5 mg/kg

Compound | IC50 (IAV polymerase) | inhibition of neuraminidase of A/Puerto Rico/8/34 (H1N1), in words [1] | inhibition of neuraminidase of A/Hong Kong/8/68 (H3N2), in words [2] | antiviral activity in the remaining three time intervals (IAV) | reduction of viral load, interval 0–10 h (IAV) | inhibition of influenza virus-induced aggregation of chicken erythrocytes [3] | lysis of erythrocytes caused by HA2 under acidic condition (HA2 subunit) | N-PAGE of equimolar mixture with N66 (N66) | EC50 (MERS-CoV pseudovirus) | CC50, cytotoxicity of compounds on MDCK cells (MDCK cells; dog, MDCK cells, 72 h) | CC50 on the TZM-b1 cell (TZM-b1 cell) | level at 24 h (in vivo) | IC50 (IAV polymerase; Influenza A virus, HEK-293T, 30 h) | CC50, cytotoxicity of compounds on MDCK cells (MDCK cells) | antiviral effect at the interval of 5–8 h (IAV)
CCCCCCCCCCCCCCCC(=O)NCCCC[C@H](NC(=O)CCNC(=O)[C@H](CCCCN)NC(=O)[C@H](CCCCN)NC(=O)[C@H](CCC(N)=O)NC(=O)[C@@H](NC(=O)[C@H](CCC(=O)O)NC(=O)[C@H](CCC(=O)O)NC(=O)[C@@H](NC(=O)[C@H](CCCCN)NC(=O)[C@H](CCCCN)NC(=O)[C@H](CCC(N)=O)NC(=O)[C@@H](NC(=O)[C@H](CCC(=O)O)NC(=O)[C@H](CCC(=O)O)NC(=O)[C@@H](NC(=O)[C@H](CCCCN)NC(=O)[C@H](CCCCN)NC(=O)[C@H](CCC(N)=O)NC(=O)[C@@H](NC(=O)[C@H](CCC(=O)O)NC(=O)[C@H](CCC(=O)O)NC(=O)[C@@H](NC(=O)[C@H](CCCCN)NC(=O)[C@H](CCCCN)NC(=O)[C@H](CCC(N)=O)NC(=O)[C@@H](NC(=O)[C@H](CCC(=O)O)NC(=O)[C@H](CCC(=O)O)NC(=O)[C@@H](NC(=O)[C@H](CCCCN)NC(=O)[C@H](CCCCN)NC(=O)[C@H](CCC(N)=O)NC(=O)[C@@H](NC(=O)[C@H](CCC(=O)O)NC(=O)[C@H](CCC(=O)O)NC(=O)[C@@H](NC(C)=O)[C@@H](C)CC)[C@@H](C)CC)[C@@H](C)CC)[C@@H](C)CC)[C@@H](C)CC)[C@@H](C)CC)[C@@H](C)CC)[C@@H](C)CC)[C@@H](C)CC)[C@@H](C)CC)C(N)=O [IIQ] (Ac-IEEIQKKIEEIQKKIEEIQKKIEEIQKKIEEIQKK[βAla]K(Palmitoyl)-NH2) | > 100 µM | neither IIQ nor favipiravir was able to disturb cleavage of the substrate | neither IIQ nor favipiravir was able to disturb cleavage of the substrate | no antiviral activity | approximately 60% | no apparent inhibition | decreased compared with the hemolytic effect of virus only | new bands at the upper positions in the gel | 0.13 µM | >100 µM | > 100 µM | > 100 ng/mL |  |  | 
CCOC(=O)C1=C[C@@H](OC(CC)CC)[C@H](NC(C)=O)[C@@H](N)C1 [oseltamivir, reference compound] |  |  |  |  |  |  |  |  |  |  |  |  | > 100 µM | >100 µM | 
NC(=O)c1nc(F)cnc1O [favipiravir, reference compound] |  | neither IIQ nor favipiravir was able to disturb cleavage of the substrate | neither IIQ nor favipiravir was able to disturb cleavage of the substrate |  |  |  |  |  |  |  |  |  |  |  | continued to exert its full effect
